Tests used:
[1] = test system: A549; assay: TNF-alpha-induced RANTES production in A549 cells using ELISA assay; assay type: functional, cell-based; conditions: Homo sapiens
[2] = target: T1, Inhibitor of nuclear factor kappa-B kinase subunit beta (Homo sapiens, UniProt O14920); assay: Inhibitory activity against recombinant human I-kappa-B-kinase beta
T1 sequence (O14920 whole entry): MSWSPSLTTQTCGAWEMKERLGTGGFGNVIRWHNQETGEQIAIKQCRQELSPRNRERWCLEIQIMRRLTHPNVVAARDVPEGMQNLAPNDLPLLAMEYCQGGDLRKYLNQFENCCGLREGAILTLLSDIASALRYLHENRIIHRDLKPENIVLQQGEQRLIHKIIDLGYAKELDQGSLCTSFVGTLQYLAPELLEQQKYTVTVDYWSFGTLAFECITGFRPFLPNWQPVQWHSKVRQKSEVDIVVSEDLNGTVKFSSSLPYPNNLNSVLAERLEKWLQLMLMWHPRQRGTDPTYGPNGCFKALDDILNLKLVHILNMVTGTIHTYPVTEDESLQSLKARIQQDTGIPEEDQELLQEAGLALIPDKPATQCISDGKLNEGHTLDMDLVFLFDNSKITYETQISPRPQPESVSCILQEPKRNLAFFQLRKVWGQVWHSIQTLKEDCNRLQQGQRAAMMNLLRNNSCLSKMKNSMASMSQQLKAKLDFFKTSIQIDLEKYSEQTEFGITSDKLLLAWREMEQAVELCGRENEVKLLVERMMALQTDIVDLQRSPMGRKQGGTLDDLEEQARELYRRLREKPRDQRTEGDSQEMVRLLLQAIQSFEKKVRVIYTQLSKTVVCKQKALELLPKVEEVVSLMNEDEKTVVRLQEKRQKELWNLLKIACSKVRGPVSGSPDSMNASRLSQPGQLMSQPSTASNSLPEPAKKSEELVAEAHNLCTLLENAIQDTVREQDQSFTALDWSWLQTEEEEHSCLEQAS

[3] = Inhibition of Mitogen activated protein kinase kinase 4
[4] = target: T2, Inhibitor of nuclear factor kappa-B kinase subunit alpha (Homo sapiens, UniProt O15111); assay: Inhibition of I-kappa-B-kinase alpha
T2 sequence (O15111 whole entry): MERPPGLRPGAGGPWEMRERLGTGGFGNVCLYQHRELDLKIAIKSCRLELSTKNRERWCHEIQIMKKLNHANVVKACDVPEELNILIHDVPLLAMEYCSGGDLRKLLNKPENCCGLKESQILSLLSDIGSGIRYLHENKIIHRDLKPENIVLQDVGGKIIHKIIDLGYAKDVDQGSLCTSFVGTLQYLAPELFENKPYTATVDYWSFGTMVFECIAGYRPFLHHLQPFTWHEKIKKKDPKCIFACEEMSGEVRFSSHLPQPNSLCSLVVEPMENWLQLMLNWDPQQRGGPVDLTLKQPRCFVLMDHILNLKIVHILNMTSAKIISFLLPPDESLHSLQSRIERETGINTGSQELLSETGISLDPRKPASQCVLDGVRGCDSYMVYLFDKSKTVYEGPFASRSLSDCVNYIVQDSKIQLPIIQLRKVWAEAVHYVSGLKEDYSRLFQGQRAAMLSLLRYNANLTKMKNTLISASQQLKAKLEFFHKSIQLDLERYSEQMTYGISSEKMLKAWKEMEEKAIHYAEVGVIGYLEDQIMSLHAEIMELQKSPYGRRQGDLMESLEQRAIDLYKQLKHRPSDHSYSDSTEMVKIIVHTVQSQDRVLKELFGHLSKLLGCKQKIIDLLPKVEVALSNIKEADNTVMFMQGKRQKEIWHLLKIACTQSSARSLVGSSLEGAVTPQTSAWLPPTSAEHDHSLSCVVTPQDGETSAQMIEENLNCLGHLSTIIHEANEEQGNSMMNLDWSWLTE

[5] = Tested for anti-CD3/anti-CD28-induced IL-2 production in Jurkat T-cell; assay type: functional, cell-based; conditions: Homo sapiens
[6] = test system: PBMC; assay: Tested for LPS induced TNFalpha production in human PBMC cells; assay type: functional, cell-based

Compound | IC50 [1] [nM] | IC50 [2] [nM] | IC50 [3] [nM] | IC50 [4] [nM] | IC50 [5] [nM] | IC50 [6] [nM]
N#Cc1c(C2CCNCC2)cc(-c2ccccc2O)nc1N | 400 | 300 | – | – | – | –
N#Cc1c(-c2cccnc2)cc(-c2ccccc2O)nc1N | – | 6200 | – | – | – | –
N#Cc1c(C(N)CCc2ccccc2)cc(-c2ccccc2O)nc1N (stereo not given) | 15000 | 730 | – | – | – | –
CC(=O)Nc1nc(-c2ccccc2O)cc(C2CCCNC2)c1C#N (stereo not given) | 1500 | 330 | – | – | – | –
N#Cc1c(N)nc(-c2ccccc2O)c(F)c1C1CCCNC1 (stereo not given) | 2000 | 230 | – | – | – | –
N#Cc1c(C2CCCNC2)cc(-c2ccccc2)nc1N (stereo not given) | – | > 20000 | – | – | – | –
CC(C)C(N)c1cc(-c2ccccc2O)nc(N)c1C#N (stereo not given) | 5000 | 240 | – | – | – | –
CN1CCCC(c2cc(-c3ccccc3O)nc(N)c2C#N)C1 (stereo not given) | 1000 | 230 | – | – | – | –
CC(N)Cc1cc(-c2ccccc2O)nc(N)c1C#N (stereo not given) | 3000 | 470 | – | – | – | –
CCCCC(N)c1cc(-c2ccccc2O)nc(N)c1C#N (stereo not given) | 15000 | 480 | – | – | – | –
N#Cc1c(C2CCCCN2)cc(-c2ccccc2O)nc1N (stereo not given) | 6000 | 530 | – | – | – | –
CNc1nc(-c2ccccc2O)cc(C2CCCNC2)c1C#N (stereo not given) | 20 | 6500 | – | – | – | –

Now those with a lower IC50 [2], led by results:

IC50 [1] [nM] | IC50 [2] [nM] | IC50 [3] [nM] | IC50 [4] [nM] | IC50 [5] [nM] | Compound | IC50 [6] [nM]
4000 | 150 | – | – | – | CC(N)c1cc(-c2ccccc2O)nc(N)c1C#N (stereo not given) | –
8000 | 60 | – | – | – | N#Cc1c(C(N)Cc2ccccc2)cc(-c2ccccc2O)nc1N (stereo not given) | –
2000 | 110 | – | – | – | N#Cc1c(CC(N)c2ccccc2)cc(-c2ccccc2O)nc1N (stereo not given) | –
5000 | 40 | – | – | – | N#Cc1c(C(N)Cc2ccc(F)cc2)cc(-c2ccccc2O)nc1N (stereo not given) | –
800 | 70 | – | – | – | N#Cc1c(CCN)cc(-c2ccccc2O)nc1N | –
300 | 25 | > 20000 | 450 | 600 | N#Cc1c(C2CCCNC2)cc(-c2ccccc2O)nc1N (stereo not given) | 400
5000 | 80 | – | – | – | COc1ccc(CC(N)c2cc(-c3ccccc3O)nc(N)c2C#N)cc1 (stereo not given) | –
